# According to ChEMBL document CHEMBL1201862, “PubChem BioAssay data set” (2004):
# Calls of active or inactive are those of the source.
# Experiments:
# [1] = Luminescence-based cell-based high throughput dose response assay to identify activators of the DAF-12 from the parasite S. stercoralis (ssDAF-12).; format: functional
# [2] = target: T1, Oxysterols receptor LXR-beta (Homo sapiens, UniProt P55055); experiment: LXR agonists, Gal4 luciferase reporter, dose response, counter-screen for ssDAF-12 agonist project, cell-based, luminescence, HEK293, S. stercoralis campaign (AID 720737); format: functional; settings: read-out: IC50 (the source's name)
# T1 sequence (P55055 whole entry): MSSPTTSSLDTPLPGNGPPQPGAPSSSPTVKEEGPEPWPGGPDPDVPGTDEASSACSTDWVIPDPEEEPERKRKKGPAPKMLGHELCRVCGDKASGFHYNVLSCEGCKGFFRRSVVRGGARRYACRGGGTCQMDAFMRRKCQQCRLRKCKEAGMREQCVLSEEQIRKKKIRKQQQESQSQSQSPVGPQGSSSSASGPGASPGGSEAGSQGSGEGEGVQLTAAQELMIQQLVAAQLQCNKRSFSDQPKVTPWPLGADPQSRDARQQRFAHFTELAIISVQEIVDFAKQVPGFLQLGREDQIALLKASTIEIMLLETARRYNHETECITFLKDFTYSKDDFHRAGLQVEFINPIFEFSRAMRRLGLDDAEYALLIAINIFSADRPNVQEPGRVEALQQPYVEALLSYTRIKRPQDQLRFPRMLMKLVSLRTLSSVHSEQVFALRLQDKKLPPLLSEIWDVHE
# [3] = target: T1, Oxysterols receptor LXR-beta; format: functional, cell-based
# [4] = target: NAD-dependent protein deacylase sirtuin-5, mitochondrial (Homo sapiens, UniProt Q9NXA8); experiment: SIRT5 desuccinylase inhibitors, dose response, biochemical, fluorescence imaging, cherry-pick, set 5 (AID 720591);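 also: desuccinylation of succinyl peptide AMC substrate read as fluorescence after trypsin release; potency of inhibitors that lower fluorescence and may act on trypsin instead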
# [5] = P. falciparum Dd2 growth inhibitors, dose response, SYBR Green, dry powder samples, set 9 (AID 1159568); format: functional, cell-based
# [6] = P. falciparum Dd2 growth inhibitors, dose response, SYBR Green, dry powder samples (AID 1159566); format: functional, cell-based;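 also: potency for growth inhibition with lower SYBR green DNA signal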
# [7] = P. falciparum 3D7-ScDHODH growth inhibitors, dose response, SYBR Green, dry powder samples (AID 1159570); format: functional, cell-based;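 also: parasite growth measured after 72 hours of compound exposure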
# [8] = P. falciparum ATP4 D1247Y mutant growth inhibitors, dose response, NITD609-resistant line, SYBR Green, dry powder (AID 1159571); format: functional, cell-based;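 also: parasites synchronized at ring stage by sorbitol before testing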
# [9] = P. falciparum Dd2 growth inhibitors, dose response, SYBR Green, cherry-picked samples (AID 1159567); format: functional, cell-based
# Chain of NAD-dependent protein deacylase sirtuin-5, mitochondrial (Q9NXA8 whole entry): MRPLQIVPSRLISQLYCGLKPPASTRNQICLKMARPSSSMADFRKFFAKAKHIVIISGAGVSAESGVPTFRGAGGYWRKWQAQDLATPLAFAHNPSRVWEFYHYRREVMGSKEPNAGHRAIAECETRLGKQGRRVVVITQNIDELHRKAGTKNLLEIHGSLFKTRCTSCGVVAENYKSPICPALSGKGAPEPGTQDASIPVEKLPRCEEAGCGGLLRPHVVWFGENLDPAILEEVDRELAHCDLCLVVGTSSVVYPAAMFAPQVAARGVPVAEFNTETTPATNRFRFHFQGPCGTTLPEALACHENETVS
structure (smiles),measurement,setting,value
C(=Cc1c[nH]c2ccccc12)c1nccc2ccccc12,IC50,[1],> 67.6 µM (inactive)
same,EC50,cells,> 67.4 µM (inactive)
same,EC50,[2],> 67.6 µM (inactive)
same,EC50,[3],> 67.4 µM (inactive)
CCOc1ccc(CCNC(=O)c2cccc(S(=O)(=O)N3CCN(C(C)=O)CC3)c2)cc1OCC,AC50,[4],> 30 µM (inactive)
Cc1ccc(S(=O)(=O)N2C[C@@H]3CCCC[C@@H]3[C@@H](C)[C@H]2c2cn(Cc3ccccc3)c3ccc(F)cc23)cc1,AC50,[4],> 30 µM (inactive)
N#C[C@@H]1[C@H](c2ccccc2)[C@H](CO)N1C(=O)Nc1cccc(F)c1,AC50,[5],0.968 µM (active)
C[C@@H]1CN([C@H](C)CO)C(=O)c2cc(NC(=O)Nc3ccc4c(c3)OCO4)ccc2O[C@@H](C)CCCCO[C@H]1CN(C)S(=O)(=O)c1ccccc1,AC50,[5],2.22 µM (active)
COc1cccc(C#Cc2ccc([C@H]3[C@@H](CO)N(C(=O)C4CCC4)[C@H]3C#N)cc2)c1,AC50,[6],0.636 µM (active)
same,AC50,[7],1.17 µM (active)
same,AC50,[8],1.41 µM (active)
same,AC50,[9],1.2 µM (active)
COc1ccc2c3c(n(C)c2c1)[C@@H](CO)N(C(=O)c1ccc(F)cc1)CC31CN(C(=O)Nc2ccc(F)cc2)C1,AC50,[6],1.22 µM (active)
same,AC50,[7],1.26 µM (active)
same,AC50,[8],0.999 µM (active)
same,AC50,[9],1.79 µM (active)
